Experimental data reported in patent US20250381157A1, “ANTIMICROBIAL COMPOUNDS” (priority 2022, published 2025).
Read-outs that look alike come from different tables or passages of the source.

What was measured:
[1] = tested on: Enterotoxigenic Escherichia coli (ETEC) (ATCC ® 35401 ™, H10407); format: in vivo, mouse; conditions: for Clinical observation (Mean Score) Hunched Posture / Clinical observation (Mean Score) Rough coat / Clinical observation (Mean Score) hyperpnea: 1 mg/kg PO q12h 9 days, 0=absent 1=present
Protocol: FIG. 3: Schematic protocol for neutropenia mouse model
A schematic of the experimental model is depicted in FIG. 3.
That experiment was performed in the presence of cyclophosphamide, which is known to cause febrile neutropenia due to translocation of bacteria to vital organs.

Caco-2 cells = experiment: Caco-2 cell study (permeability, efflux); format: in vitro ADME; conditions: for Active efflux: Caco-2
Description: Caco-2 cells are used as a model of the intestinal epithelial barrier.

[2] = Dose escalation toxicity and MTD in mouse
Plasma stability Mouse = format: in vitro ADME
[3] = Stability SGD, SIF w. Enzymes; format: in vitro ADME
in vivo = conditions: mouse, po, 7 Days PO once daily MTD - mouse
[4] = Rat pharmacokinetics (IV, PO); format: in vivo; conditions: for half-life / bioavailability: in vivo; for bioavailability: oral
Plasma stability Rat = format: in vitro ADME
[5] = tested on: CAMP gene (encoding human cathelicidin); experiment: Induction test: ProLL-37-luciferase fusion protein expression in HT-29 CampLuc MN8 reporter cell line; format: cell-based; conditions: after 24h; luminescence relative to untreated cells
Protocol: FIG. 2: Induction test. […] Statistical analysis was performed by comparison of each compound-treatment conditions to the corresponding vehicle control using two-way ANOVA with Dunnett post-hoc test. Only significant changes were indicated, ** p<0.01, *** p<0.001, **** p<0.0001.
MN8CampLuc cells were handled according to Nylén et. al. with the following exception when predifferention of cells were performed before induction: […]

[6] = 1 mg/kg, PO, twice daily(q12h), 9 days
[7] = individual animals, 1 mg/kg, PO, twice daily(q12h), 9 days
[8] = PO, read-out: Elimination T½ (min) PO - rat
[9] = intravenous, PIV, read-out: Elimination T½ (min) PIV - rat

Nc1ccccc1NC(=O)c1ccc(CNC(=O)OCc2cccnc2)cc1 [Entinostat, Pyridin-3-ylmethyl (4-((2-aminophenyl)-carbamoyl)benzyl)carbamate, reference compound]
Body weights (Final Day) (Mean ± SD) [1, 6]: 26.5 ± 1.58 | Log10 CFU/g [Mean ± SD] Blood [1, 6]: BLOQ | Log10 CFU/g [Mean ± SD] Kidneys [1, 6]: BLOQ | Log10 CFU/g [Mean ± SD] Liver [1, 6]: BLOQ | Log10 CFU/g [Mean ± SD] Spleen [1, 6]: BLOQ | Clinical observation (Mean Score) Hunched Posture ([1]; Day (0)): 0.0 | Clinical observation (Mean Score) Rough coat ([1]; Day (0)): 0.0 | Clinical observation (Mean Score) hyperpnea ([1]; Day (0)): 0.0 | Clinical observation (Mean Score) Hunched Posture ([1]; Day (1)): 0.0 | Clinical observation (Mean Score) Rough coat ([1]; Day (1)): 0.0 | Clinical observation (Mean Score) hyperpnea ([1]; Day (1)): 0.0 | Clinical observation (Mean Score) Hunched Posture ([1]; Day (2)): 0.0 | Clinical observation (Mean Score) Rough coat ([1]; Day (2)): 0.0 | Clinical observation (Mean Score) hyperpnea ([1]; Day (2)): 0.0 | Clinical observation (Mean Score) Hunched Posture ([1]; Day (3)): 0.0 | Clinical observation (Mean Score) Rough coat ([1]; Day (3)): 0.0 | Clinical observation (Mean Score) hyperpnea ([1]; Day (3)): 0.0 | Clinical observation (Mean Score) Hunched Posture ([1]; Day (4)): 0.0 | Clinical observation (Mean Score) Rough coat ([1]; Day (4)): 0.0 | Clinical observation (Mean Score) hyperpnea ([1]; Day (4)): 0.0 | Clinical observation (Mean Score) Hunched Posture ([1]; Day (5)): 0.0 | Clinical observation (Mean Score) Rough coat ([1]; Day (5)): 0.1 | Clinical observation (Mean Score) hyperpnea ([1]; Day (5)): 0.0 | Clinical observation (Mean Score) Hunched Posture ([1]; Day (6)): 0.0 | Clinical observation (Mean Score) Rough coat ([1]; Day (6)): 0.1 | Clinical observation (Mean Score) hyperpnea ([1]; Day (6)): 0.0 | Clinical observation (Mean Score) Hunched Posture ([1]; Day (7)): 0.0 | Clinical observation (Mean Score) Rough coat ([1]; Day (7)): 0.2 | Clinical observation (Mean Score) hyperpnea ([1]; Day (7)): 0.0 | Clinical observation (Mean Score) Hunched Posture ([1]; Day (−1)): 0.0 | Clinical observation (Mean Score) Rough coat ([1]; Day (−1)): 0.0 | Clinical observation (Mean Score) hyperpnea ([1]; Day (−1)): 0.0 | Clinical observation (Mean Score) Hunched Posture ([1]; Day (−2)): 0.0 | Clinical observation (Mean Score) Rough coat ([1]; Day (−2)): 0.0 | Clinical observation (Mean Score) hyperpnea ([1]; Day (−2)): 0.0 | Bacteria in treated animals ([1]; day 7, compound 1 at 50 mg/kg): BLOQ | Kidney -Raw data on Vancomycin (32 μg/ml) plates [1, 7]: BLOQ | Liver-Raw data on Vancomycin (32 μg/ml) plates [1, 7]: BLOQ | Spleen -Raw data on Vancomycin (32 μg/ml) plates [1, 7]: BLOQ | Blood -Raw data on Vancomycin (32 μg/ml) plates - on day 7 PI ([1]; individual animals, day 7 PI, 1 mg/kg, PO, twice daily(q12h), 9 days): BLOQ | clinical condition of animals ([1]; treated groups): apparently normal

Nc1ccccc1NC(=O)c1ccc(OCc2cn(CCO)nn2)cc1 [HO56]
Caco-2 Permeability A-B dir. (Caco-2 cells): Low | Active efflux (Caco-2 cells): Yes | Dose Esc. Tox mouse PO [2]: >200 mg/kg | Dose Esc. Tox mouse iv [2]: 10 mg/kg | Plasma stability Mouse (Plasma stability Mouse): High | Stability SGD, SIF w. Enzymes [3]: High | MTD at 7 days (in vivo): > 50 mg/kg | C_max IV - rat [4]: 26 µM | V-d IV - rat [4]: 3.07 L/kg | C_max PO - rat ([4]; PO): 1.2 µM | half-life [4, 8]: 132 min | half-life [4, 9]: 94 min | bioavailability [4]: 16% | Plasma stability Rat (Plasma stability Rat): High

C#CCOCC(=O)N(C)Cc1ccc(C(=O)Nc2ccccc2N)cc1 [Compound 2.1, N-(2-aminophenyl)-4-[(methyl{[(prop-2-yn-1-yl)oxy]acetyl}amino)methyl]benzamide]
expression of ProLL-37-luciferase fusion protein [5]: induced expression

C#CCCCC(=O)Oc1ccc(C(=O)Nc2ccccc2N)cc1 [Compound 2.3, 4-[(2-aminophenyl)carbamoyl]phenyl hex-5-ynoate]
expression of ProLL-37-luciferase fusion protein [5]: induced expression

Nc1ccccc1NC(=O)c1ccc(NC(=O)COCc2cn(CCO)nn2)cc1 [HO53]
Caco-2 Permeability A-B dir. (Caco-2 cells): Low | Active efflux (Caco-2 cells): Yes | Dose Esc. Tox mouse PO [2]: >100 mg/kg | Dose Esc. Tox mouse iv [2]: >100 mg/kg | Plasma stability Mouse (Plasma stability Mouse): Low | Stability SGD, SIF w. Enzymes [3]: High | MTD at 7 days (in vivo): > 50 mg/kg | C_max IV - rat [4]: 21 µM | V-d IV - rat [4]: 1.7 L/kg | C_max PO - rat ([4]; PO): 0.09 µM | half-life [4, 8]: 35 min | half-life [4, 9]: 126 min | bioavailability [4]: 3% | Plasma stability Rat (Plasma stability Rat): High

CCC(=O)NCCOCC(=O)N(C)Cc1ccc(C(=O)Nc2ccccc2N)cc1 [Compound 2.2, N-(2-aminophenyl)-4-{[N-methyl-2-(2-propanamidoethoxy)acetamido]methyl}benzamide]
expression of ProLL-37-luciferase fusion protein [5]: induced expression
